Laboratory results taken from publication PMC7413254 (Nature Communications, 2020).

Assays:
Format in all cases: cell-based
[1] = target: T1, PfCRT^Dd2 (Plasmodium falciparum, UniProt Q9N623, A220S/I356T/K76T/M74I/N326S/N75E/Q271E/R371I); assay: [3H]CQ uptake into Xenopus oocytes, cis-inhibition by unlabelled solute; settings: PfCRTDd2 oocytes, background [3H]CQ accumulation subtracted, normalised to oocyte type control
In short: (§1)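 Each treatment used ten oocytes, repeated in at least four experiments on different days with oocytes from different frogs. Conditions: ND96 pH 5.5, 27.5 °C, 1.5 h; read-out by scintillation counting.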

[2] = target: T2, PfCRT^Ecu1110 (Plasmodium falciparum, UniProt Q9N623, A220S/I356L/K76T/N326D); assay: as above; settings: for PfCRT-mediated [3H]CQ transport, cis-inhibition (% PfCRTEcu1110 control): PfCRTEcu1110 oocytes, background [3H]CQ accumulation subtracted, normalised to oocyte type control; for [3H]CQ transport (% PfCRTEcu1110 control), cis-inhibition, PfCRTEcu1110: PfCRT-mediated component (background subtracted), sheet title says normalised to PfCRTDd2 control, mean ± SEM, SEM
T2 sequence (Q9N623 whole entry A220S/I356L/K76T/N326D): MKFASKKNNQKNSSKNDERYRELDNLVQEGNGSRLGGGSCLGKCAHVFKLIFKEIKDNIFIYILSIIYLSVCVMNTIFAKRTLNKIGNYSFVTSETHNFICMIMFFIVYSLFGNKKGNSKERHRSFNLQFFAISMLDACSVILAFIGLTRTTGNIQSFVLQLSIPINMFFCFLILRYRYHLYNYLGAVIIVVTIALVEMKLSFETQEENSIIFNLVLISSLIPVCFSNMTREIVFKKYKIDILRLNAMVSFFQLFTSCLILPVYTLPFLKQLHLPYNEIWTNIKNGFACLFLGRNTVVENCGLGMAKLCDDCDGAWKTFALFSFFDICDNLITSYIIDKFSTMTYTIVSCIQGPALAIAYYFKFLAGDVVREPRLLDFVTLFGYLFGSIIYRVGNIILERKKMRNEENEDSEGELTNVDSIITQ
In short: as §1

[3] = target: PfCRT^3D7 (Plasmodium falciparum, UniProt Q8IBZ9); assay: cell-based; settings: PfCRT3D7 oocytes, normalised to oocyte type control
PfCRT^3D7, sequence (Q8IBZ9 59-398): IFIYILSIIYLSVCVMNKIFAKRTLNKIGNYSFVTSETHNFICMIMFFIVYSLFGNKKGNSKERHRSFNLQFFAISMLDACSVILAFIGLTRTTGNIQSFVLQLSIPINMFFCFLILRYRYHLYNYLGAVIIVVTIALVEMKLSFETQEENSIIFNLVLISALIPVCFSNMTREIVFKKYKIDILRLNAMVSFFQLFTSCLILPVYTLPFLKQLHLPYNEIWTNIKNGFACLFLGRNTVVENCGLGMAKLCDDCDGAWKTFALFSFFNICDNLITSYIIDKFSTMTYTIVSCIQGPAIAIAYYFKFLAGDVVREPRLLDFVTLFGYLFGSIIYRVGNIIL
In short: (§2)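 Oocytes (ten per treatment, ≥4 independent frogs/days) were preloaded by injecting VF-6 in 25 nL ND96 at pH 5.0, 5.5, 6.0 or 7.0, or Na^+-free choline buffer, then uptake run 1.5 h, 27.5 °C, ND96 pH 5.5 by default. Internal concentrations assumed ~400 nL oocyte volume.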

[4] = target: T1, PfCRT^Dd2; assay: cell-based; settings: for PfCRT-mediated [3H]CQ transport, trans-stimulation (% PfCRTDd2 control): PfCRTDd2 oocytes, normalised to oocyte type control; for [3H]CQ transport (% PfCRTDd2 control), trans-stimulation, PfCRTDd2: PfCRT-mediated component (background subtracted), mean ± SEM, SEM
In short: as §2

[5] = target: T2, PfCRT^Ecu1110; assay: cell-based; settings: for PfCRT-mediated [3H]CQ transport, trans-stimulation (% PfCRTEcu1110 control): PfCRTEcu1110 oocytes, normalised to oocyte type control; for [3H]CQ transport (% PfCRTDd2 control), trans-stimulation, PfCRTEcu1110: PfCRT-mediated component (background subtracted), sheet title says normalised to PfCRTDd2 control, mean ± SEM, SEM
In short: as §2

[6] = [test solute]i = 5 mM (intracellular)
[7] = [test solute]i = 45 mM (intracellular; 30 mM for some solutes due to solubility)
[8] = [test solute]i = 5 mM (injected)
[9] = [test solute]i = 45 mM (30 mM for some solutes due to solubility)

T1 sequence (Q9N623 whole entry A220S/I356T/K76T/M74I/N326S/N75E/Q271E/R371I): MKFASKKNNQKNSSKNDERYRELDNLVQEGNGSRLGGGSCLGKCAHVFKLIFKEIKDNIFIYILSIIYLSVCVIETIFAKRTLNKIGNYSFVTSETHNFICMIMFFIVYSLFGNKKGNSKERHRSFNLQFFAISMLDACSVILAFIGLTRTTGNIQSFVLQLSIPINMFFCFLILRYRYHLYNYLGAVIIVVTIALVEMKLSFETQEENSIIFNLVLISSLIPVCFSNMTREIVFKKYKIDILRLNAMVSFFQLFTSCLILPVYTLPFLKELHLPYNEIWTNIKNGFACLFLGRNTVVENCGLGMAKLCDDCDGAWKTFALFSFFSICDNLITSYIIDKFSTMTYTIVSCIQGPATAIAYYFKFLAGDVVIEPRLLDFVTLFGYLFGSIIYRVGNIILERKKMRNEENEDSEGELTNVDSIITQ

Substance | PfCRT-mediated [3H]CQ transport, cis-inhibition (% PfCRTDd2 control) ([1]; [test solute] = 0.5 mM) | PfCRT-mediated [3H]CQ transport, cis-inhibition (% PfCRTDd2 control) ([1]; [test solute] = 1 mM) | PfCRT-mediated [3H]CQ transport, cis-inhibition (% PfCRTDd2 control) ([1]; [test solute] = 2 mM) | PfCRT-mediated [3H]CQ transport, cis-inhibition (% PfCRTEcu1110 control) ([2]; [test solute] = 0.5 mM) | PfCRT-mediated [3H]CQ transport, cis-inhibition (% PfCRTEcu1110 control) ([2]; [test solute] = 1 mM) | PfCRT-mediated [3H]CQ transport, cis-inhibition (% PfCRTEcu1110 control) ([2]; [test solute] = 2 mM) | PfCRT-mediated [3H]CQ transport, trans-stimulation (% PfCRT3D7 control) [3, 6] [% PfCRT3D7 control] | PfCRT-mediated [3H]CQ transport, trans-stimulation (% PfCRT3D7 control) [3, 7] [% PfCRT3D7 control] | PfCRT-mediated [3H]CQ transport, trans-stimulation (% PfCRTDd2 control) [4, 6] [% PfCRTDd2 control] | PfCRT-mediated [3H]CQ transport, trans-stimulation (% PfCRTDd2 control) [4, 7] [% PfCRTDd2 control] | PfCRT-mediated [3H]CQ transport, trans-stimulation (% PfCRTEcu1110 control) [5, 6] [% PfCRTEcu1110 control] | PfCRT-mediated [3H]CQ transport, trans-stimulation (% PfCRTEcu1110 control) [5, 7] [% PfCRTEcu1110 control] | [3H]CQ transport (% PfCRTEcu1110 control), cis-inhibition, PfCRTEcu1110 ([2]; [test solute] = 0.5 mM) [% PfCRTEcu1110 control] | [3H]CQ transport (% PfCRTEcu1110 control), cis-inhibition, PfCRTEcu1110 ([2]; [test solute] = 1 mM) [% PfCRTEcu1110 control] | [3H]CQ transport (% PfCRTEcu1110 control), cis-inhibition, PfCRTEcu1110 ([2]; [test solute] = 2 mM) [% PfCRTEcu1110 control] | [3H]CQ transport (% PfCRTDd2 control), trans-stimulation, PfCRTDd2 [4, 8] [% PfCRTDd2 control] | [3H]CQ transport (% PfCRTDd2 control), trans-stimulation, PfCRTDd2 [4, 9] [% PfCRTDd2 control] | [3H]CQ transport (% PfCRTDd2 control), trans-stimulation, PfCRTEcu1110 [5, 8] [% PfCRTEcu1110 control] | [3H]CQ transport (% PfCRTDd2 control), trans-stimulation, PfCRTEcu1110 [5, 9] [% PfCRTEcu1110 control]
VVYPWTQR [VR-8] | 40 ± 3.2 | 22 ± 1.1 | 11 ± 0.8 | 42 ± 2.6 | 32 ± 1.9 | 21 ± 1.4 | 96 ± 2.8 | 98 ± 2.9 | 96 ± 1.4 | 95 ± 1.5 | 97 ± 1.8 | 98 ± 3.7 | – | – | – | – | – | – | –
LDNLK [LK-5] | 31 ± 1.4 | 21 ± 1.9 | 13 ± 0.7 | 40 ± 1.4 | 30 ± 1.9 | 21 ± 1.9 | 127 ± 4.2 | 180 ± 7.2 | 100 ± 1.3 | 94 ± 3.2 | 97 ± 4.2 | 136 ± 5.1 | 13 ± 0.1 | 9.0 ± 0.03 | 7.0 ± 0.03 | 100 ± 1.3 | 94 ± 3.2 | 29 ± 1.4 | 41 ± 2.1
DPENF [DEF-5] | 29 ± 2.1 | 20 ± 1.1 | 11 ± 0.1 | 41 ± 2.7 | 28 ± 1.0 | 18 ± 0.3 | 129 ± 3.2 | 162 ± 4.2 | 100 ± 2.1 | 112 ± 0.5 | 122 ± 1.9 | 137 ± 2.5 | 13 ± 0.1 | – | 6.0 ± 0.3 | 100 ± 2.1 | 112 ± 0.5 | 37 ± 1.5 | 41 ± 2.3
HVDDMPN [HN-7] | 37 ± 1.7 | 20 ± 0.5 | 9.2 ± 1.1 | 36 ± 1.6 | 31 ± 3.5 | 21 ± 1.3 | 142 ± 4.5 | 187 ± 4.5 | 100 ± 3.2 | 98 ± 3.5 | 132 ± 4.3 | 140 ± 4.2 | 11 ± 0.6 | – | 7.0 ± 0.05 | 100 ± 3.2 | 98 ± 3.5 | 40 ± 2.5 | 42 ± 2.4
HVDDMP [HP-6] | 22 ± 2.9 | 16 ± 1.2 | 4.1 ± 0.1 | 40 ± 1.0 | 31 ± 1.6 | 21 ± 1.6 | 142 ± 3.3 | 190 ± 4.3 | 103 ± 1.1 | 112 ± 1.1 | 122 ± 4.2 | 139 ± 3.4 | – | – | 7.0 ± 0.02 | 103 ± 1.1 | 112 ± 1.1 | 36 ± 1.3 | 42 ± 1.3
